# ± gives the expanded uncertainty stated by the source.
# Assay: mn = molality of the nth substance listed, in mol/kg
# Details: 100 kPa, Liquid; for speed of sound: Frequency=3 MHz, Single path-length method; for mass density: Vibrating tube method
structure (smiles),measurement,setting,value
O=C([O-])C(=O)[O-].[K+].[K+] [potassium oxalate] + O,speed of sound,"288.15 K, m1 = 0.2",1497 ± 1.4 m/s
same,speed of sound,"288.15 K, m1 = 0.4",1525.3 ± 2.1 m/s
same,speed of sound,"288.15 K, m1 = 0.6",1552.3 ± 1.3 m/s
same,speed of sound,"288.15 K, m1 = 0.8",1580.5 ± 2.6 m/s
same,mass density,"288.15 K, m1 = 0.2",1023.62 ± 0.58 kg/m3
same,mass density,"288.15 K, m1 = 0.4",1046.97 ± 0.96 kg/m3
same,mass density,"288.15 K, m1 = 0.6",1069.58 ± 1.4 kg/m3
same,mass density,"288.15 K, m1 = 0.8",1092.28 ± 1.9 kg/m3
same,speed of sound,"298.15 K, m1 = 0.2",1524.8 ± 1.4 m/s
same,speed of sound,"298.15 K, m1 = 0.4",1550.9 ± 1.6 m/s
same,speed of sound,"298.15 K, m1 = 0.6",1576.4 ± 2 m/s
same,speed of sound,"298.15 K, m1 = 0.8",1602.3 ± 2.3 m/s
same,mass density,"298.15 K, m1 = 0.2",1021.1 ± 0.57 kg/m3
same,mass density,"298.15 K, m1 = 0.4",1044.13 ± 0.97 kg/m3
same,mass density,"298.15 K, m1 = 0.6",1066.44 ± 1.4 kg/m3
same,mass density,"298.15 K, m1 = 0.8",1088.95 ± 1.8 kg/m3
same,speed of sound,"308.15 K, m1 = 0.2",1545.9 ± 1.4 m/s
same,speed of sound,"308.15 K, m1 = 0.4",1570.5 ± 1.6 m/s
same,speed of sound,"308.15 K, m1 = 0.6",1594.5 ± 1.9 m/s
same,speed of sound,"308.15 K, m1 = 0.8",1618.8 ± 2.2 m/s
same,mass density,"308.15 K, m1 = 0.2",1017.79 ± 0.57 kg/m3
same,mass density,"308.15 K, m1 = 0.4",1040.55 ± 0.96 kg/m3
same,mass density,"308.15 K, m1 = 0.6",1062.69 ± 1.4 kg/m3
same,mass density,"308.15 K, m1 = 0.8",1084.89 ± 1.8 kg/m3
same,speed of sound,"318.15 K, m1 = 0.2",1561.2 ± 1.3 m/s
same,speed of sound,"318.15 K, m1 = 0.4",1584.6 ± 2.4 m/s
same,speed of sound,"318.15 K, m1 = 0.6",1607.1 ± 1.6 m/s
same,speed of sound,"318.15 K, m1 = 0.8",1630.1 ± 2.2 m/s
same,mass density,"318.15 K, m1 = 0.2",1013.81 ± 0.56 kg/m3
same,mass density,"318.15 K, m1 = 0.4",1036.39 ± 0.65 kg/m3
same,mass density,"318.15 K, m1 = 0.6",1058.36 ± 1.6 kg/m3
same,mass density,"318.15 K, m1 = 0.8",1080.46 ± 1.8 kg/m3

# Reference: the NIST ThermoML archive (doi:10.1016/j.jct.2019.06.023)
